Reference: patent US6291515A, “Use of efomycins” (Bayer Aktiengesellschaft, priority 1996, dated 2001)

Assays:
Format in all cases: cell-based
[1] = test system: cultured endothelial cells; test: MTT test for cytotoxicity on endothelial cells; details: at efficacious concentrations
[2] = test system: adhesion of human PMNL to hypoxia-stimulated pig aorta; test: Inhibition of PMNL adhesion to hypoxia-stimulated pig aortas, human PMNL; details: proportion of adherent PMNL vs control (=100), 90-minute coincubation at 37° C., MPO readout
Protocol: (§1) Freshly isolated pig aortas were brought into the laboratory from the local slaughterhouse in oxygen-aerated, phosphate-buffered saline solution (PBS). Freshly obtained pig or human blood was taken for the preparation of polymorphonuclear neutrophilic granulocytes (PMNL). The aortas were stimulated by placing them for 30 minutes in PBS which was aerated with nitrogen (hypoxia stimulus). The aorta were then fixed between a Teflon block (below) and a specially made steel plate (above) with drilled wells (similar to a microtiter plate). PMNL and the potential adhesion inhibitors were added to the luminal side, i.e. to the stimulated endothelial cell layer, in cell media (M199, Gibco). After a 90-minute coincubation at 37° C. in an incubator, the wells were washed. The remaining adherent PMNL were lysed. The activity of the PMNL-specific myeloperoxidase (MPO) in the lysate was determined photometrically and compared to the untreated control (only solvent). […] The proportion of the adherent PMNL in comparison with the control is indicated.
(§2) Inhibition of the adhesion of pig PMNL or human PMNL to hypoxia-stimulated pig aorta by efomycins

[3] = test system: adhesion of PMNL to albumin-coated plastic surfaces; test: Adhesion of PMNL to albumin-coated plastic surfaces; details: test described in EP 0 461 499 A2 (Use Example 1)
Excerpt: The adhesion test to albumin-coated plastic surfaces is described in detail, inter alia, in EP 0 461 499 A2 (Use Example 1).

[4] = test system: adhesion of pig PMNL to hypoxia-stimulated pig aorta; test: Inhibition of PMNL adhesion to hypoxia-stimulated pig aortas, pig PMNL; details: for % adherent PMNL, Pig PMNL: hypoxia-stimulated pig aorta, proportion of adherent PMNL vs control (=100), 90-minute coincubation at 37° C., MPO readout
Protocol: as §1, §2

| Compound | cytotoxicity against endothelial cells in the MTT test [1] | % adherent PMNL, Human PMNL [2] | inhibition of adhesion of PMNL to albumin-coated plastic surfaces [3] | activity in the test model described (PMNL adhesion to hypoxia-stimulated pig aorta), in words ([4]; PMNL species not given) | % adherent PMNL, Pig PMNL [4] |
| --- | --- | --- | --- | --- | --- |
| CC[C@@H](/C=C/C(=O)[C@@H](C)[C@H](O)[C@H](C)[C@H]1OC(=O)/C=C/C=C/[C@H](C)[C@@H]([C@@H](C)[C@@H](O)[C@H](C)C(=O)/C=C/[C@H](CC)[C@@H](C)O)OC(=O)/C=C/C=C/[C@@H]1C)[C@@H](C)O [Ex. No. 1] | no cytotoxicity | 52 ± 2% | does not inhibit | active | 33 ± 23% |
| CC[C@@H](/C=C/C(=O)[C@@H](C)[C@H](OC(C)=O)[C@H](C)[C@H]1OC(=O)/C=C/C=C/[C@H](C)[C@@H]([C@@H](C)[C@@H](OC(C)=O)[C@H](C)C(=O)/C=C/[C@H](CC)[C@@H](C)OC(C)=O)OC(=O)/C=C/C=C/[C@@H]1C)[C@@H](C)OC(C)=O [Ex. No. 2] |  | 90 ± 5% |  |  | 85 ± 11% |
